Data reported in PMC3619390 (Journal of medicinal chemistry, 2012).

Key:
[1] = Glutathione stability / reactivity experiment; format: physicochemical; details: 37 °C, DMSO, five-fold molar excess of glutathione, HPLC, up to 24 hours
[2] = system: single-strand annealing (SSA) in HEK293 cells; test: SSA repair efficiency, SA-GFP reporter; format: cell-based, human; details: 24 hours
[3] = system: HR repair in HEK293 cells; test: HR repair efficiency, DR-GFP reporter; format: cell-based, human; details: 24 hours
HEK293 cells = test: Sensitization of cells to MMC; format: cell-based, human; details: HEK293, varying MMC 24 hours then compound 24 hours (Figure 4)
human RAD51 protein [4] = biological target: T1, human RAD51 protein (Homo sapiens, UniProt Q06609); test: FP-based DNA binding assay; details: compound 59 μM, 0.23 μM RAD51 (Figure 2B)
T1 sequence (Q06609 1-339): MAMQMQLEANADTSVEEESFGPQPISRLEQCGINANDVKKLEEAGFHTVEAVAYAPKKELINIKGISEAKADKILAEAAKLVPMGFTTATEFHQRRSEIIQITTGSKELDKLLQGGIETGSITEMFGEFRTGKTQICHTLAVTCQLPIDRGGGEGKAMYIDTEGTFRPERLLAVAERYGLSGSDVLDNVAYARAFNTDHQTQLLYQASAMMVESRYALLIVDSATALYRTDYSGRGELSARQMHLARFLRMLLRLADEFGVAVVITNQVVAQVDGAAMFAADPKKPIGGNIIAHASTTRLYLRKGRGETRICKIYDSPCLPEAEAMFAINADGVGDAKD

human cells [5] = details: requires long (>10 hour) pre-incubation of cells with compound; cited from earlier work
human RAD51 protein [6] = biological target: T1, human RAD51 protein; test: DNA binding competition; details: 10 μM compound prior to washing (Figure 2C)
human cells [7] = details: cited from earlier work
[8] = 60 μM, compared with 1 at 20 μM

## COc1ccc(C2=C(N3CCOCC3)C(=O)N(c3ccc(Cl)c(Cl)c3)C2=O)cc1 [7a, 1-(3,4-dichlorophenyl)-3-(4-methoxyphenyl)-4-morpholino-1H-pyrrole-2,5-dione]
[1]
  reactivity with glutathione: no reactivity
[2]; [8]
  effect on SSA efficiency: very similar effects
[3]; [8]
  effect on HR efficiency: very similar effects
HEK293 cells
  sensitization of cells to MMC: significant sensitization of cells
Human RAD51 protein [4]
  time dependence of inhibition of RAD51 DNA binding activity: did not observe any time-dependent increase

## O=c1c2ccccc2nc(/C=C/c2cccnc2)n1Cc1ccccc1 [B02]
Human cells [5]
  sensitization of cells to cross-linking chemotherapeutic drugs: does successfully sensitize cells

## O=C1C(Cl)=C(N2CCOCC2)C(=O)N1c1ccc(Cl)c(Cl)c1 [compound 1]
[2]; 20 μM
  effect on SSA efficiency: stimulation of SSA
[3]; 20 μM
  effect on HR efficiency: inhibition of HR
HEK293 cells
  sensitization of cells to MMC: significant sensitization of cells
Human RAD51 protein [6]
  RAD51 DNA binding activity after compound treatment on beads and washing: significantly inactivated
Human RAD51 protein [4]
  time dependence of inhibition of RAD51 DNA binding activity: time-dependent

## C[C@@]12CCC(=O)c3coc(c31)C(=O)c1cc3c(cc12)C(=O)C=CC3=O [halenaquinone]
Human cells [7]
  sensitization of cells to ionizing radiation: not capable of sensitizing cells to ionizing radiation
